Measured values reported in article PMC11468294, “Peptide Amphiphiles as Biodegradable Adjuvants for Efficient Retroviral Gene Delivery” (Advanced Healthcare Materials, 2023).
“Also recorded” adds a separate entry of the source. Where a SMILES comes first, the peptide text is derived from it. The star is where a group is joined. Palmitoyl = CCCCCCCCCCCCCCCC(=O)*

How the values were obtained:
[1] = Microscopic aggregation (fluorescence / confocal microscopy, derived count rate); type: physicochemical; settings: for formation of µm-sized aggregates (in words): fibrils preformed at 1 mg mL-1 in PBS, ThT or Proteostat stain, widefield or confocal microscopy, derived count rate > 1000 kcps as criterion; for assembly in water (fluorescence microscopy): incubated 1 d in pure MilliQ water, ThT stain
[2] = tested on: HIV-1 infection of TZM-bl cells; experiment: HIV-1 infection assay (β-galactosidase luminescence reporter); type: cell-based; settings: infectivity enhancing if n-fold at 1.3 µM larger than 2
Method in brief: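 TZM-bl cells (10000 per well) were seeded one day before infection. Peptide nanofibril solution was mixed 1:1 (v/v) with HIV-1 (1:500 dilution) for 10 min before inoculation. Infection was read as β-galactosidase luminescence, in technical triplicates across three independent experiments.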

CD4+ T cells = type: cell-based, Human; settings: 0.26, 1.3, 6.5 µM, 3 days; LIVE/DEAD Fixable Aqua stain
Protocol: γ‐Retroviral transduction Assay CD4+ T cells: Human CD4+ T cells were isolated from a Buffy coat using RosetteSep Human CD4+ Enrichment Cocktail ([…] Technologies) according to manufacturer's protocol. Isolated T cells were activated using Dynabeads Human T‐Activator CD3/CD28 (GibcoTM) according to manufacturer's protocol in presence of 10 ng mL^−1 IL‐2 (Miltenyi Biotec) for three days. After 3 days the magnetic Dynabeads were removed using a magnet and T cells were cultured in presence of 9 ng mL^−1 IL‐7 (Miltenyi Biotec) and 10 ng mL^−1 IL‐15 (Miltenyi Biotec). After 1 day 5 × 10^5 T cells were transduced with GALV‐γ‐RV in absence and presence of PA1, PA2, EF‐C (0.26, 1.3 and 6.5 µM) and Vectofusin−1 (10 µg mL^−1; Miltenyi Biotec), or RetroNectin (20 µg mL^−1; Takara Bio). […] After 3 days GFP+ T cells were analyzed by flow cytometry. Viability was determined using LIVE/DEAD Fixable Aqua Dead Cell Stain Kit (ThermoFisher Scientific) according to manufacturer's protocol. […]
Figure S7 Viability of CD4+ T cells. […] Dead cells were initially eliminated by gating on viability dye-negative cells (SSC-A vs. Fixable Aqua Fluorescence) and afterwards for singlets (FSC-H vs. FSC-A). GFP+ cells were measured using the FITC channel. […]

Molecule	formation of µm-sized aggregates (in words) [1]	assembly in water (fluorescence microscopy) [1]	infectivity enhancement of HIV-1 (in words) [2]	viability of CD4+ T cells (CD4+ T cells)
CCCCCCCCCCCCCCCC(=O)N[C@@H](Cc1ccccc1)C(=O)N[C@@H](CCC(N)=O)C(=O)N[C@@H](Cc1ccccc1)C(=O)N[C@@H](CCCCN)C(=O)N[C@@H](Cc1ccccc1)C(=O)N[C@@H](CCCCN)C(=O)N[C@@H](CS)C(N)=O [PA2] (Palmitoyl-FQFKFKC-NH2)	micrometer‐sized clusters of fibrils were formed; also recorded: high aggregation; also recorded: form µm‐sized aggregates	distinct fibrils	strong infectivity enhancement of HIV‐1 in the range of EF‐C	did not reduce the viability
C16-VVVAAAKKK-NH2 [PA1]	micrometer‐sized clusters of fibrils were formed; also recorded: less aggregation; also recorded: form µm‐sized aggregates	distinct fibrils	strong infectivity enhancement of HIV‐1 in the range of EF‐C	did not reduce the viability
